From US4163784A, “Heterocyclylcarbonyl derivatives of urea, agents for dissolution of gallstones” (Pfizer Inc., priority 1978, dated 1979)

How the values were obtained:
[1] = tested on: male CD-1 mice; test: seven-day chronic toxicity test (hepatotoxicity); type: in vivo; conditions: 500 mg./kg. daily orally in 0.1% methyl cellulose for 5 days
[2] = tested on: male CD-1 mice; test: acute toxicity, single intraperitoneal dose; type: in vivo; conditions: 1000 mg./kg. single i.p. dose, 0.6% Tween 20, 10 mice per group, observed one week
Procedure: The compounds were tested for acute toxicity in the following manner. Healthy male CD-1 mice (20-25 g.), 10 mice per group, received a single high dose of drug by intraperitoneal administration (1000 mg./kg., in 0.6% Tween 20, at a concentration of 70 mg./ml.). (Tween 20, polyoxyethylene sorbitan monolaurate, available from Atlas Chemical Industries, Inc.). The animals were observed continuously for at least two hours, again at 24 hours and daily thereafter for one week. Controls received vehicle alone, […]. and were asymptomatic throughout. The compounds tested and the widely varying mortality rates observed are tabulated below.

[3] = tested on: dogs; test: oral administration at high dose to dogs, toxicity; type: in vivo; conditions: 250 mg./kg.
[4] = tested on: rats; test: oral administration at high dose to rats, toxicity; type: in vivo; conditions: same high dose as dogs (250 mg./kg.)
[5] = tested on: pathogenic cholelithiasis process; conditions: in man; cited from earlier work

SMILES	hepatotoxicity [1]	Mortality Rate [2]	also measured
O=C(NCc1ccccc1)NC(=O)c1cccnc1Cl [2-chloro-N-(benzylaminocarbonyl)nicotinamide]	no hepatotoxicity	0/10	–
O=C(NC(=O)N1CC=CCC1)c1cccnc1 [3-pyridyl, 1-(1,2,3,6-tetrahydropyridyl)]	–	9/10	–
CCCCN(CCCC)C(=O)NC(=O)c1cccnc1 [3-pyridyl, N-(n-C 4 H9)2]	–	10/10	–
CCCCN(CCCC)C(=O)NC(=O)c1cncs1 [5-thiazolyl, N-(n-C 4 H9)2]	–	4/10	–
O=C(NC(=O)N1CC=CCC1)c1ccc(Cl)nc1 [6-Chloro-N-[1-(1,2,3,6-tetrahydropyridyl)carbonyl]nicotinamide]	produced hepatotoxicity	0/10	pathological signs in dogs [3]: pathological signs suggestive of cardiac impairment; toxic effects in dogs: death ([3]; ten times the projected efficacious dose): death of the dogs; toxicological symptoms in rats [4]: only moderate toxicological symptoms, including lethargy, diminished appetite and weight gain, and slight abnormalities in clinical chemistry
C[C@H](CCC(=O)O)[C@H]1CC[C@H]2[C@@H]3[C@H](O)C[C@@H]4C[C@H](O)CC[C@]4(C)[C@H]3CC[C@]12C [chenodeoxycholic acid]	–	–	prevention and reversal of the pathogenic cholelithiasis process [5]: prevention and even reversal of the pathogenic cholelithiasis process in man
